Assay results published in article PMC6978363, “Chaperone mediated detection of small molecule target binding in cells” (Nature Communications, 2020).

Experiments:
Experiment in all cases: biochemical
Conditions in all cases: read-out: % Inhibition (at 10mM)
[1] = target: T1, CHK1 (Homo sapiens, UniProt O14757)
T1 construct: gene CHEK1

[2] = target: T2, CK1_delta (Homo sapiens, UniProt P48730)
T2 construct: gene CSNK1D

[3] = target: PAK4 (Homo sapiens, UniProt O96013)
[4] = target: CDKL5 (Homo sapiens, UniProt O76039)
[5] = target: PAK3 (Homo sapiens, UniProt O75914)
[6] = target: Src (Homo sapiens, UniProt P12931)
[7] = target: T3, GSK3_alpha (Homo sapiens, UniProt P49840)
T3 construct: gene GSK3A

[8] = target: T4, CK2_alpha2 (Homo sapiens, UniProt P19784)
T4 construct: gene CSNK2A2
T4 sequence (P19784 whole entry): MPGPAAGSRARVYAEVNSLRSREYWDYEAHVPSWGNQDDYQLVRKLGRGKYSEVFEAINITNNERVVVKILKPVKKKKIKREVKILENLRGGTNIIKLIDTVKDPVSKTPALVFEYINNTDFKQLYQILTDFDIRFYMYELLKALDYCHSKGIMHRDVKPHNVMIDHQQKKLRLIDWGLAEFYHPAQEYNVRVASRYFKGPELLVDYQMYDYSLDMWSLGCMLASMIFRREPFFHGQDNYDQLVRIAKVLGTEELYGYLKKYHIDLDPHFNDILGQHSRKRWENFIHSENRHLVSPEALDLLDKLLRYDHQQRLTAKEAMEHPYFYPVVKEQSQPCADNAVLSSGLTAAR

[9] = target: T5, PKC_zeta (Homo sapiens, UniProt Q05513)
T5 construct: gene PRKCZ

[10] = target: T6, ERK5 (Homo sapiens, UniProt Q13164)
T6 construct: gene MAPK7
T6 sequence (Q13164 whole entry): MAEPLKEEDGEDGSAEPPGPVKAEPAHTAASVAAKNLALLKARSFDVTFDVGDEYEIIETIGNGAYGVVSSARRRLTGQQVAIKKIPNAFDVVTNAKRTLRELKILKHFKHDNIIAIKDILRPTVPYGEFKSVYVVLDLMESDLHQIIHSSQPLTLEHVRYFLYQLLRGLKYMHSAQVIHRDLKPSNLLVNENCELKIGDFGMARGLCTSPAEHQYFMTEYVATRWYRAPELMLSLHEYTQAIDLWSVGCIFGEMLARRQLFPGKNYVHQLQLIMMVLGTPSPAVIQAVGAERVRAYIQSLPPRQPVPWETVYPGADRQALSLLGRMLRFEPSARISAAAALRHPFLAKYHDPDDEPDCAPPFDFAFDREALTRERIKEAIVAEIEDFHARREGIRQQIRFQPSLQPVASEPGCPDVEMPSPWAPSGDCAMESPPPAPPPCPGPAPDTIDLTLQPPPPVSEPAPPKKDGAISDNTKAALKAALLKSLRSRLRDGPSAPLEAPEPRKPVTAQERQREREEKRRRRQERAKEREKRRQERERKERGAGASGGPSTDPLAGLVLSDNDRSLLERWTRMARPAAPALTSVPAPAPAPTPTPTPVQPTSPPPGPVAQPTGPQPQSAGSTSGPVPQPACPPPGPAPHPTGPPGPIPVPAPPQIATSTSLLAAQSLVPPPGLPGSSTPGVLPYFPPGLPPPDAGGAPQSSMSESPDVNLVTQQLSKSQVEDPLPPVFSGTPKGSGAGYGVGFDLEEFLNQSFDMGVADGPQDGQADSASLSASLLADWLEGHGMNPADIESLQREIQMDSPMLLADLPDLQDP

[11] = target: Ret (Homo sapiens, UniProt P07949)
[12] = target: T7, RSK1 (Homo sapiens, UniProt Q15418)
T7 construct: gene RPS6KA1

[13] = target: CLK2 (Homo sapiens, UniProt P49760)
Chain of CLK2 (P49760 whole entry): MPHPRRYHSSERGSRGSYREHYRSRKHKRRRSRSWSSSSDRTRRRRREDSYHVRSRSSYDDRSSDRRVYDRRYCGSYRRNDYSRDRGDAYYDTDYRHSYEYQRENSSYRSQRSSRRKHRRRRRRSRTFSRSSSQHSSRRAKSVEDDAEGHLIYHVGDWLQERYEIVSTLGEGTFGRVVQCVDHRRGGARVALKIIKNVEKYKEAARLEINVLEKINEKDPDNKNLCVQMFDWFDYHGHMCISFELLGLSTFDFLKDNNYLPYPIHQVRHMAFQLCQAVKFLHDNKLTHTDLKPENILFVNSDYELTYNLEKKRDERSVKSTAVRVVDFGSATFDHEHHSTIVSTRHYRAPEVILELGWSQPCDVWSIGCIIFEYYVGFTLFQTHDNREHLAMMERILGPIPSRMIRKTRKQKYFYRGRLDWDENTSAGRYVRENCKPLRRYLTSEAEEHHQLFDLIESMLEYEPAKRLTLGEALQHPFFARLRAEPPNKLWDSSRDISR

[14] = target: NEK2 (Homo sapiens, UniProt P51955)
[15] = target: GRK4 (Homo sapiens, UniProt P32298)
[16] = target: T8, p38_beta (Homo sapiens, UniProt Q15759)
T8 construct: gene MAPK11

[17] = target: SGK1 (Homo sapiens, UniProt O00141)
[18] = target: T9, p38_alpha(direct) (Homo sapiens, UniProt Q16539)
T9 construct: gene MAPK14; direct
T9 sequence (Q16539 whole entry): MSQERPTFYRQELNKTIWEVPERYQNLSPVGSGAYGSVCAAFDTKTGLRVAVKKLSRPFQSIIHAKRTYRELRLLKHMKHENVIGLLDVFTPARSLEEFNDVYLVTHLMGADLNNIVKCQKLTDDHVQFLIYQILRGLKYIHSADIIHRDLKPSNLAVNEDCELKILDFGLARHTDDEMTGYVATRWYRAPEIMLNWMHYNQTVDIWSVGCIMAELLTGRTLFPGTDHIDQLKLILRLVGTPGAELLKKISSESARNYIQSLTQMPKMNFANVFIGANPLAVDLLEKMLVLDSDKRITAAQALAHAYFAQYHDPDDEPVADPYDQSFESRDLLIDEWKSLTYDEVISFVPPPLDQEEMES

[19] = target: Syk (Homo sapiens, UniProt P43405)
[20] = target: GRK7 (Homo sapiens, UniProt Q8WTQ7)
[21] = target: Fer (Homo sapiens, UniProt P16591)
[22] = target: T10, PhK_gamma2 (Homo sapiens, UniProt P15735)
T10 construct: gene PHKG2

[23] = target: T11, CK1_gamma3 (Homo sapiens, UniProt Q9Y6M4)
T11 construct: gene CSNK1G3
T11 sequence (Q9Y6M4 whole entry): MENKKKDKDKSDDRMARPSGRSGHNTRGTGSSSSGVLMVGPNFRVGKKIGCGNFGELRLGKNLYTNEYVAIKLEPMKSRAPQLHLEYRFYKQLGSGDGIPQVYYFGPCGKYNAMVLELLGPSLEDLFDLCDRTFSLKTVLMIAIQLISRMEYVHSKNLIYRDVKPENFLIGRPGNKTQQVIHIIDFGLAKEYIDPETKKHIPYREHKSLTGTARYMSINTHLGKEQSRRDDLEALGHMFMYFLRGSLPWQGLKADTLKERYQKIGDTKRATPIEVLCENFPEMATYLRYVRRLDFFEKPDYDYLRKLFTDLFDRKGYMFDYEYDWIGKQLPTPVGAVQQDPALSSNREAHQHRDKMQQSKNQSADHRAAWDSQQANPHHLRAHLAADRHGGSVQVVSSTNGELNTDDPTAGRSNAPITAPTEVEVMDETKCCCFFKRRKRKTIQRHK

[24] = target: NEK6 (Homo sapiens, UniProt Q9HC98)
[25] = target: ROCK1 (Homo sapiens, UniProt Q13464)
[26] = target: T12, ZIPK (Homo sapiens, UniProt O43293)
T12 construct: gene DAPK3

[27] = target: Fes (Homo sapiens, UniProt P07332)
[28] = target: PAK1 (Homo sapiens, UniProt Q13153)
[29] = target: MAP4K4 (Homo sapiens, UniProt O95819)
[30] = target: BrSK1 (Homo sapiens, UniProt Q8TDC3)
[31] = target: GRK3 (Homo sapiens, UniProt P35626)
[32] = target: T13, ERK2 (Homo sapiens, UniProt P28482)
T13 construct: gene MAPK1
T13 sequence (P28482 whole entry): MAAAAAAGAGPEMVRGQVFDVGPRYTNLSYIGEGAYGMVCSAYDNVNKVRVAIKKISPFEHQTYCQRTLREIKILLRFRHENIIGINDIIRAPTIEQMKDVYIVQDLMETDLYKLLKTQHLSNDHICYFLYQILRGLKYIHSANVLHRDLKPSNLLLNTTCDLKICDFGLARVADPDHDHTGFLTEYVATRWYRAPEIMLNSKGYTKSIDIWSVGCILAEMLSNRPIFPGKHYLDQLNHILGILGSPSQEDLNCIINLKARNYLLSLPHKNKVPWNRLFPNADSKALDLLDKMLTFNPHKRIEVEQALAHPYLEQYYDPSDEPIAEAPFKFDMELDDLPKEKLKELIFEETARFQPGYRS

[33] = target: JAK3 (Homo sapiens, UniProt P52333)
[34] = target: InsR (Homo sapiens, UniProt P06213)
[35] = target: T14, MSSK1 (Homo sapiens, UniProt Q9UPE1)
T14 construct: gene SRPK3

[36] = target: T15, MRCK_beta (Homo sapiens, UniProt Q9Y5S2)
T15 construct: gene CDC42BPB
T15 sequence (Q9Y5S2 whole entry): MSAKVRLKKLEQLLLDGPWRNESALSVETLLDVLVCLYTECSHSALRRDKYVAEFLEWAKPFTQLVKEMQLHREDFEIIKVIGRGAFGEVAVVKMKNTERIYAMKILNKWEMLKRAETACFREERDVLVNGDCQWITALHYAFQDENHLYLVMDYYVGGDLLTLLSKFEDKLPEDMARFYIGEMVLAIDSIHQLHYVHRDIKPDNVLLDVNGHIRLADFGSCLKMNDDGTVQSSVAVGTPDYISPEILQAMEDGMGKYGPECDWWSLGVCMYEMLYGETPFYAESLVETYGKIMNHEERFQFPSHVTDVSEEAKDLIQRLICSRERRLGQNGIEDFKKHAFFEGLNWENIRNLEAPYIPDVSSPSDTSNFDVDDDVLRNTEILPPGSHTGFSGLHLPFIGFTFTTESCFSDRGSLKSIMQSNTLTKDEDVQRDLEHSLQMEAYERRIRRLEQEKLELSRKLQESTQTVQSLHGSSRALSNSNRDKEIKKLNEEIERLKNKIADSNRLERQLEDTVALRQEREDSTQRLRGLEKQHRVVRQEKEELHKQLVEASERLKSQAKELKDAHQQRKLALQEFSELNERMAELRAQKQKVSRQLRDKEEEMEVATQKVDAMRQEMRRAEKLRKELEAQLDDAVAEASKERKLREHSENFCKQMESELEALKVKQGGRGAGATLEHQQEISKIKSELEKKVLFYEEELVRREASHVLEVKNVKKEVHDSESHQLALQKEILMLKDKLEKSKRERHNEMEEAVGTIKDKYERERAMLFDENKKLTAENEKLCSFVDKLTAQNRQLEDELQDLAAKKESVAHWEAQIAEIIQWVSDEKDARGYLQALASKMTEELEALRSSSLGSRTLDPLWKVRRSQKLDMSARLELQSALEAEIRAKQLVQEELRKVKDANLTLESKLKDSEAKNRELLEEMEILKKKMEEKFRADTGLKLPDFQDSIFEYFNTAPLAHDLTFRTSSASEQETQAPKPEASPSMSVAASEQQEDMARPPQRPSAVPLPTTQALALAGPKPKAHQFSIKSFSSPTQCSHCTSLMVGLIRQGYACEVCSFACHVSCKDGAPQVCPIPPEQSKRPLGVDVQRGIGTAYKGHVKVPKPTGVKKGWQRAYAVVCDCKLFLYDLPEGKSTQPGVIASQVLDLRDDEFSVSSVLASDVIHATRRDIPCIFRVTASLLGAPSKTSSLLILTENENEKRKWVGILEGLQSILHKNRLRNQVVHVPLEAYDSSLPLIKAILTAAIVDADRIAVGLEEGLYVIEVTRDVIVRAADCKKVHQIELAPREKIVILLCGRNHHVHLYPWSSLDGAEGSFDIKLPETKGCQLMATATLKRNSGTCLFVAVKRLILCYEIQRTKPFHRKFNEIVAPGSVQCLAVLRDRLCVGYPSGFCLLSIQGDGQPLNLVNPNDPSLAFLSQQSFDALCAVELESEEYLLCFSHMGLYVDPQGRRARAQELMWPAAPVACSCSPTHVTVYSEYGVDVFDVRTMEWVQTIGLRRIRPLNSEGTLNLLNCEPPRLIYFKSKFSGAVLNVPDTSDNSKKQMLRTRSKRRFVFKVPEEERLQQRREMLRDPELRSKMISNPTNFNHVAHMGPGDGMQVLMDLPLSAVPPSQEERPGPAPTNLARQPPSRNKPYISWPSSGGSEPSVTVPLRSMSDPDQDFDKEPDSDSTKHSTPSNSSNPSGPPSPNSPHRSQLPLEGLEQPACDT

[37] = target: T16, eEF-2K (Homo sapiens, UniProt O00418)
T16 construct: gene EEF2K

[38] = target: T17, Srm (Homo sapiens, UniProt Q9H3Y6)
T17 construct: gene SRMS
T17 sequence (Q9H3Y6 whole entry): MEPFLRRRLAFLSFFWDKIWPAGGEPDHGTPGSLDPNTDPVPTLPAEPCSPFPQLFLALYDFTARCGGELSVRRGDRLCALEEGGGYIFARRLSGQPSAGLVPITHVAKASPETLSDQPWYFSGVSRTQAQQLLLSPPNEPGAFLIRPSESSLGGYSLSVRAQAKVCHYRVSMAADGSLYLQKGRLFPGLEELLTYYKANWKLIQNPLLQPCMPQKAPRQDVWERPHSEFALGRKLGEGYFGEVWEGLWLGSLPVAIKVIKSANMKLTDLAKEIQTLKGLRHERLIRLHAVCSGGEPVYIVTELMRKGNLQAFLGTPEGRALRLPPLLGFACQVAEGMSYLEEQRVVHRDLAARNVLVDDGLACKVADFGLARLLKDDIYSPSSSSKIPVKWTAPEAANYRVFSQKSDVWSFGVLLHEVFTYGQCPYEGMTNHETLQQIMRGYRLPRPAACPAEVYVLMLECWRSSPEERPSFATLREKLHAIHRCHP

Compound `CC(C)(O)CC(=O)NCCn1ccc2ncnc(Nc3ccc(Oc4cccc(C(F)(F)F)c4)c(Cl)c3)c21` [TAK-285] has an inhibition [1] of 4.5%, an inhibition [2] of -1.5% and an inhibition [3] of 5.5%. For the same compound, the inhibition [4] was 8.5%, the inhibition [5] was 12% and the inhibition [6] was 37.5%. The inhibition [7] was 10%, the inhibition [8] was 6.5% and the inhibition [9] was 8.5%. The inhibition [10] was 0.5%, the inhibition [11] was 15.5% and the inhibition [12] was 14.5%. It also gave an inhibition [13] of 18.5%, an inhibition [14] of 4% and an inhibition [15] of -11.5%. For the same compound, the inhibition [16] was 1%, the inhibition [17] was 2% and the inhibition [18] was 4%. It also gave an inhibition [19] of 3.5%, an inhibition [20] of 5.5% and an inhibition [21] of 12.5%. The inhibition [22] was -0.5%, the inhibition [23] was 2.5% and the inhibition [24] was 6%. The inhibition [25] was -1.5%, the inhibition [26] was 7% and the inhibition [27] was 15.5%. The inhibition [28] was 16%, the inhibition [29] was -0.5% and the inhibition [30] was 5%. The inhibition [31] was -5.5%, the inhibition [32] was 12.5% and the inhibition [33] was 2%. For the same compound, the inhibition [34] was 9.5%, the inhibition [35] was 5% and the inhibition [36] was 1.5%. The inhibition [37] was 7% and the inhibition [38] was 13.5%.
